According to patent US10100047B2, “Piperidine derivatives as orexin receptor antagonist” (SHANGHAI HAIYAN PHARMACEUTICAL TECHNOLOGY CO., LTD., priority 2014, dated 2018):
Read-outs that look alike come from different tables or passages of the source.

Tests used:
hOX1R = target: T1, hOX1R (Homo sapiens, UniProt O43613); assay: In vitro test of OX1R: calcium signal change in cells detected with FLIPR; type: cell-based; details: HEK293-OX1 stable cell strain, Fluo-4 AM calcium signal, Orexin A at EC70
T1 construct: expressed in transfected cells
T1 sequence (O43613 1-425): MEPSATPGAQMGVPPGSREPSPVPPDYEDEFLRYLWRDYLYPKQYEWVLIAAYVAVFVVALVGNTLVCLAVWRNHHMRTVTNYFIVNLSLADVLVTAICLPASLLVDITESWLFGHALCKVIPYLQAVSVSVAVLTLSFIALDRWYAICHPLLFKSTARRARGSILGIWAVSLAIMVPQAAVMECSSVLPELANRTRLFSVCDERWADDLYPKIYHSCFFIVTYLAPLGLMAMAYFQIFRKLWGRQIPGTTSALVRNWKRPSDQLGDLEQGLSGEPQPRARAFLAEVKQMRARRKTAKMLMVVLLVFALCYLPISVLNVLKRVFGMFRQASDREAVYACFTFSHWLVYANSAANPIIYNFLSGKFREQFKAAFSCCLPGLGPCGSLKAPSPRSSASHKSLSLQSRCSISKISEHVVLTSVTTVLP
Experimental: (§1) The inhibitive effect of a compound on OX1 and OX2 GPCR receptor was evaluated by detecting calcium signal change in cells with FLIPR, and IC50 value of compound was used as an indication.
(§2) Experimental Materials: • Cell line: HEK293-OX1 and OX2 stable cell strain • HEK293-OX1 cell culture media (DMEM, Invitrogen#11960-044, 10% serum Gibco#10099141, L-Glutamine 1×, Gibco#25030, sodium pyruvate 1×, Gibco #11360, Geneticin 300 μg/ml, Gibco #10131). • HEK293-OX2 cell culture media (DMEM, Invitrogen#11960-044, 10% serum Gibco#10099141, L-Glutamine 1×, Gibco#25030, sodium pyruvate 1×, Gibco #11360, Geneticin 300 μg/ml, Gibco #10131, Blasticin 2 μg/ml, Invitrogen # R21001). • Pancreatic enzyme (Invitrogen, #25200-072) • DPBS (Hyclone, #SH30028.01B) • Fluo-4 AM, Invitrogen# F14202 • F-127, Invitrogen # P3000MP • Probenecid, Sigma # P8761 • 384-well cell plate, Greiner #781946 • 384-well compound plate, Greiner #781280 • CO2 incubator, Thermo#371 • Centrifuge, Eppendorf #5810R • Vi-cell cytometry, Beckman Coulter • POD 810 Plate Assembler Automatic microplate pretreatment system • Labcyte FLIPR, Molecular Device.
(§3) a) cell inoculation (HEK293-OX1 and HEK293-OX2 cells) • 1) The medium trypsin, and DPBS were preheated at 37° C. under water bath. Culture medium of cells was sucked and cells were washed with 10 mL DPBS. • 2) The preheated trypsin was added into the culture bottle which was rotated so that trypsin uniformly covered the bottle. It was placed in an incubator (37° C., 5% CO2) to digest for 1-2 minutes; • 3) Each T150 was suspended with 10-15 mL of culture medium, and centrifuged at 800 rpm for 5 minutes. Cells were resuspended with 10 mL medium, and 1 mL of the cell re-suspension was sucked out and counted with Vi-cell cytometry. • 4) The OX1 cells were diluted with culture medium to 5×10^5 cells/mL, and OX2 cells were diluted to 4×10^5 cells/mL. The diluted cells were added into 384 plate (Greiner. 781946) with multichannel pipettes (50 μL/hole, OX1 cells: 25000 cells/hole; and OX2 cells: 20000 cells/hole). The cell plate was placed in an incubator (37° C., 5% CO2) overnight.
(§4) b) loading of the compound: • 1) DMSO was used to dilute the compound into 20 mM by using 3-fold dilution. 8 gradients in duplicate wells were used. Echo liquid handler was used to add the compound into a compound plate. Then 20 μL buffer was added to ensure that the final DMSO concentration was 0.1%.
(§5) c) FLIPR Experiment: • 1) The cell culture medium in 384-well plate was washed away with a vacuum pump. 30 μL fluorescent dye Fluo4AM was added. […] 8 gradients in duplicate wells were used. Then the DMSO plate was prepared and the DMSO concentration was 0.5%. The cell plate, Orexin A plate, and DMSO plate were placed into FLIPR respectively, and the fluorescence values were read. • 3) EC70 value was calculated based on EC50 value of Orexin A. 5×EC70 solution was prepared and added into a 384-well compound plate with multichannel pipettes. The plate was placed on ice for preservation. • 4) In the FLIPR, the compound plate, 5×EC70 plate, cell plate and FLIPR tips were placed respectively. The program was run and the fluorescence values were read.
(§6) d) Data Analysis: Prism5.0 was used to analysis the data, and the IC50 value of the compound was calculated.

hOX2R = target: T2, hOX2R (Homo sapiens, UniProt O43614); assay: In vitro test of OX2R: calcium signal change in cells detected with FLIPR; type: cell-based; details: HEK293-OX2 stable cell strain, Fluo-4 AM calcium signal, Orexin A at EC70
T2 construct: expressed in transfected cells
T2 sequence (O43614 1-444): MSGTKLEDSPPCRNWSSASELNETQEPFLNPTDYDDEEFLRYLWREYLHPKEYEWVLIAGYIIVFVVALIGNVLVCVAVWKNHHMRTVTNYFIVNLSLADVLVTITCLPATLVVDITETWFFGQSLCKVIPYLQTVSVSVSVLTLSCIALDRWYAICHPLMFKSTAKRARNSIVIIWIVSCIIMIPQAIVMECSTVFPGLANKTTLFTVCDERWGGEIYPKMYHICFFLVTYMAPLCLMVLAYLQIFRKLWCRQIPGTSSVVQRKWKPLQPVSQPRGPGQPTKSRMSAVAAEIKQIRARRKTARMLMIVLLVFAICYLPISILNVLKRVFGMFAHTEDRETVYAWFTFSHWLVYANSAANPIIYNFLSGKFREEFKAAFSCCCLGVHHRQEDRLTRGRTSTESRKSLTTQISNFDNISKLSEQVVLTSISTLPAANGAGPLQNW
Experimental: as §1, §2, §3, §4, §5, §6

[1] = read-out: IC50 detected in FLIPR, hOX1R
[2] = read-out: IC50 detected in FLIPR, hOX2R

Row | Structure (SMILES) | IC50 (hOX1R; [1]) [nM] | IC50 (hOX2R; [2]) [nM] | IC50 (hOX1R; IC50 detected in FLIPR, hOX1R) [nM] | IC50 (hOX2R; IC50 detected in FLIPR, hOX2R) [nM]
1 | Cc1ccc(-n2nccn2)c(C(=O)N2C3CCC(COc4ccc(F)cn4)C2CC3)c1 (single isomer, unassigned) [Example 3] | 2070 | 1420 | – | –
2 | Cc1ccc(-n2nccn2)c(C(=O)N2C3CCC(COc4ccc(F)cn4)C2CC3)c1 (single isomer, unassigned) [Example 4] | 217 | 195 | – | –
3 | Cc1ccc(-c2ncccn2)c(C(=O)N2C3CCC(COc4ccc(F)cn4)C2CC3)c1 (single isomer, unassigned) [Example 7] | 1270 | 291 | – | –
4 | Cc1ccc(-c2ncccn2)c(C(=O)N2C3CCC(COc4ccc(F)cn4)C2CC3)c1 (single isomer, unassigned) [Example 8] | 4260 | 4610 | – | –
5 | Cc1ccc(-c2ncccn2)c(C(=O)N2C3CC[C@H](COc4ccc(F)cn4)[C@@H]2CC3)c1 [Example 6] | 2550 | 4190 | – | –
6 | O=C(c1c(F)cccc1-n1nccn1)N1C2CC[C@H]1CC[C@@H]2COc1ccc(F)cn1 [Example 9] | – | – | 24 | 15
7 | Cc1nc(C(=O)N2C3CC[C@H]2CC[C@@H]3COc2ccc(F)cn2)c(-c2ccccc2)s1 [Example 10] | – | – | 29 | 73
8 | Cc1ccc(-c2ccccn2)c(C(=O)N2C3CC[C@H]2CC[C@@H]3COc2ccc(F)cn2)c1 [Example 11] | 321 | 363 | – | –
9 | Cc1ccc(-c2ccccc2)c(C(=O)N2C3CC[C@H]2CC[C@@H]3COc2ccc(F)cn2)c1 [Example 12] | – | – | 219 | 206
10 | Cc1ccc(-c2ccncc2)c(C(=O)N2C3CC[C@H]2CC[C@@H]3COc2ccc(F)cn2)c1 [Example 13] | – | – | 47 | 663
11 | O=C(c1cc(F)ccc1-n1nccn1)N1C2CC[C@H]1CC[C@@H]2COc1ccc(F)cn1 [Example 14] | – | – | 16 | 20
12 | O=C(c1ccc(F)cc1-n1nccn1)N1C2CC[C@H]1CC[C@@H]2COc1ccc(F)cn1 [Example 15] | – | – | 37 | 55
13 | O=C(c1cc(Cl)ccc1-n1nccn1)N1C2CC[C@H]1CC[C@@H]2COc1ccc(F)cn1 [Example 16] | – | – | 56 | 440
14 | O=C(c1cc(F)ccc1-c1ncccn1)N1C2CC[C@H]1CC[C@@H]2COc1ccc(F)cn1 [Example 17] | 43 | 47 | – | –
15 | O=C(c1cc(Cl)ccc1-c1ncccn1)N1C2CC[C@H]1CC[C@@H]2COc1ccc(F)cn1 [Example 18] | – | – | 127 | 904
16 | O=C(c1cc(Cl)ccc1-n1ccnn1)N1C2CC[C@H]1CC[C@@H]2COc1ccc(F)cn1 [Example 19] | 41 | 372 | – | –
17 | Cc1ccc(-n2cccn2)c(C(=O)N2C3CC[C@H]2CC[C@@H]3COc2ccc(F)cn2)c1 [Example 20] | – | – | 7 | 26
18 | Cc1cccc(C(=O)N2C3CC[C@H]2CC[C@@H]3COc2ccc(F)cn2)c1 [Example 21] | 567 | 741 | – | –

Row | Structure (SMILES) | IC50 (hOX1R; [1]) [nM] | IC50 (hOX2R; [2]) [nM] | IC50 (hOX1R; IC50 detected in FLIPR, hOX1R) [nM] | IC50 (hOX2R; IC50 detected in FLIPR, hOX2R) [nM]
19 | Cc1cccc(S(=O)(=O)N2C3CC[C@H]2CC[C@@H]3COc2ccc(F)cn2)c1 [Example 22] | – | – | 2420 | 1370
20 | Cc1ccc(-c2ncccn2)c(C(=O)N2C3CCC2[C@@H](COc2ccccn2)CC3)c1 (stereo partly shown) [Example 23] | – | – | 45 | 97
21 | Cc1ccc(OCC2CCC3CCC2N3C(=O)c2cc(C)ccc2-c2ncccn2)nc1 (stereo not shown) [Example 24] | – | – | 56 | 87
22 | Cc1ccc(-c2ncccn2)c(C(=O)N2C3CCC(COc4ncc(Cl)cc4F)C2CC3)c1 (stereo not shown) [Example 25] | 113 | 124 | – | –
23 | Cc1ccc(-c2ncccn2)c(C(=O)N2C3CCC2C(F)(COc2ccc(F)cn2)CC3)c1 (stereo not shown) [Example 26] | 48 | 37 | – | –
24 | Cc1ccc(-c2ncccn2)c(C(=O)N2C3CCC(C(=O)Nc4ccccc4O)C2CC3)c1 (stereo not shown) [Example 27] | – | – | 3000 | 3000
25 | Cc1ccc(-c2ncccn2)c(C(=O)N2C3CCC(c4nc5ccccc5o4)C2CC3)c1 (stereo not shown) [Example 28] | – | – | 34 | 23
26 | Cc1ccc(-c2ncccn2)c(C(=O)N2C3CC[C@H]2CC[C@@H]3COc2ccc(F)cc2)c1 [Example 29] | 68 | 121 | – | –
27 | Cc1ccc(-c2ncccn2)c(C(=O)N2C3CC[C@H]2CC[C@@H]3COc2ccc(F)cc2F)c1 [Example 30] | – | – | 489 | 262
28 | Cc1ccc(-c2ncccn2)c(C(=O)N2C3CC[C@H]2CC[C@@H]3COc2cccnc2)c1 [Example 31] | – | – | 305 | 221
29 | Cc1ccc(-c2ncccn2)c(C(=O)N2C3CC[C@H]2CC[C@@H]3COc2ccncc2)c1 [Example 32] | 7 | 6 | – | –
30 | Cc1ccc(-c2cccnc2)c(C(=O)N2C3CCC2[C@@H](COc2ccc(F)cn2)CC3)c1 (stereo partly shown) [Example 33] | – | – | 10 | 24
31 | Cc1ccc(-c2cncnc2)c(C(=O)N2C3CCC2[C@@H](COc2ccc(F)cn2)CC3)c1 (stereo partly shown) [Example 34] | – | – | 2300 | 2510
32 | O=C(c1cc(C(F)(F)F)ccc1-c1ncccn1)N1C2CC[C@H]1CC[C@@H]2COc1ccc(F)cn1 [Example 35] | – | – | 2070 | 1420
33 | Cc1ccc(C)c(C(=O)N2C3CC[C@H]2CC[C@@H]3OCc2ccc(F)cn2)c1 [Example 36] | 217 | 195 | – | –
34 | Cc1ccc(-c2nccs2)c(C(=O)N2C3CC[C@H]2CC[C@@H]3OCc2ccc(F)cn2)c1 [Example 37] | – | – | 20 | 36
35 | Cc1ccc(-c2ncccn2)c(C(=O)N2C[C@H](COc3ccc(F)cn3)CC[C@H]2C)c1 [MK6096, reference compound] | 36 | 29 | – | –
